Assay results published in ChEMBL document CHEMBL3603753, “Carbamoyl Triazoles, Known Serine Protease Inhibitors, Are a Potent New Class of Antimalarials” (J Med Chem, 2015).
Values after ≈ are worked out from the molar mass of the structure shown. Active and inactive are the calls of the source. The rule behind the calls is not given here.

Columns and labels:
Plasmodium falciparum [1] = experiment: Antimalarial activity against Plasmodium falciparum 3D7 infected in erythrocytes incubated for 48 hrs by [3H]hypoxanthine incorporation assay; format: functional, organism-based
Plasmodium falciparum [2] = experiment: Antimalarial activity against Plasmodium falciparum 3D7 infected in erythrocytes incubated for 72 hrs by [3H]hypoxanthine incorporation assay; format: functional, organism-based
[3] = Kinetic solubility of the compound by chemoluminescent nitrogen detection kinetic solubility assay; format: physicochemical; conditions: read-out: Kinetic_solubility
HepG2 = experiment: Cytotoxicity against human HepG2 cells; format: cell-based
[4] = Half life in mouse liver microsomes; format: ADME
Liver microsome = experiment: Intrinsic clearance in human liver microsomes; format: ADME
[5] = Half life in human liver microsomes; format: ADME
[6] = target: T1, Subtilisin-like protease 1 (Plasmodium falciparum, UniProt O61142); experiment: Inhibition of Plasmodium falciparum recombinant SUB1 using SERA4st1F-6R12 substrate incubated for 55 mins by fluorescence spectrophotometry
T1 sequence (O61142 whole entry): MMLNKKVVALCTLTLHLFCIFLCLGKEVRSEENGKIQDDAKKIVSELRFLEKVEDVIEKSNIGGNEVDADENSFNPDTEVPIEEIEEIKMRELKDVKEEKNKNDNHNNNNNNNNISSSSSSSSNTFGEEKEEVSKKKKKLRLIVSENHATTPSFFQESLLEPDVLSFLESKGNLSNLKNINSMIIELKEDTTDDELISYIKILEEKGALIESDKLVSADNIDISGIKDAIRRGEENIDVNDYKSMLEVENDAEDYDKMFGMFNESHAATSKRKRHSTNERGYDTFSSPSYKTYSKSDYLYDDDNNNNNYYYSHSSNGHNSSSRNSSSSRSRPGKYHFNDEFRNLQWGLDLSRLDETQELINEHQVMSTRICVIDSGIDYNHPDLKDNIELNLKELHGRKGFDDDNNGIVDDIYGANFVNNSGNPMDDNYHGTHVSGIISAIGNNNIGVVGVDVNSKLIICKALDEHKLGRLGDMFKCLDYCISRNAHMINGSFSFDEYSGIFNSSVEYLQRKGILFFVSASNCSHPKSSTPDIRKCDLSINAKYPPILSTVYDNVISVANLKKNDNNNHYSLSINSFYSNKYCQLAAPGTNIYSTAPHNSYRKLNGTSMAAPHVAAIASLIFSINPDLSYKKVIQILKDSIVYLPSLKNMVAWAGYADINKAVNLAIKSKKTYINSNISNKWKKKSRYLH

Acetylcholinesterase = Acetylcholinesterase (Homo sapiens, UniProt P22303); experiment: Inhibition of human AChE
Sequence of Acetylcholinesterase (P22303 whole entry): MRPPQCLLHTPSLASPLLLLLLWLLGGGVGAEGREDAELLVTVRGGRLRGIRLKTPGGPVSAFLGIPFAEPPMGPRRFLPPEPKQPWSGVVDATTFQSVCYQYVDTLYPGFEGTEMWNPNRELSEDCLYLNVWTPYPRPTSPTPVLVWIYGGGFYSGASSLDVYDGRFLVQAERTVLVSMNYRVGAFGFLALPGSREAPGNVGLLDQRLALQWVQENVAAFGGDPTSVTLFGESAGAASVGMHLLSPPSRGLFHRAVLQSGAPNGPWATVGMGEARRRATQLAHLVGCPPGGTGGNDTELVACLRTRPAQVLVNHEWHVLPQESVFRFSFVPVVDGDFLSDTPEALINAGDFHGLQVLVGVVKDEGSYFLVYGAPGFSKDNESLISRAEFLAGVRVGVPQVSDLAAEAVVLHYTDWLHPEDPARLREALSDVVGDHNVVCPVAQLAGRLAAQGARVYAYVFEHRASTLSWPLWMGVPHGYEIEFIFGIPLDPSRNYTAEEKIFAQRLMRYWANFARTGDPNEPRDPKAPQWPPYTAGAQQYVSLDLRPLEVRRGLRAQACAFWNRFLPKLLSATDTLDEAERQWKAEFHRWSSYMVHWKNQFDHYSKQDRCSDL

Plasmodium falciparum [7] = experiment: Antimalarial activity against Plasmodium falciparum infected in erythrocytes assessed as young trophozoites level at 10 times antimalarial IC50 level incubated for 24 and 48 hrs by Giemsa staining based microsocpy

IC50 (Plasmodium falciparum [1]) [µM] | SMILES | also measured
0.571 | CN(C)C(=O)n1cnc(S(=O)(=O)c2ccc(Cl)cc2)n1 | –
0.602 | CN(Cc1ccc(Cl)cc1)C(=O)n1cnc(S(=O)(=O)[C@@H]2C[C@H]3CC[C@@H]2C3)n1 | –
2.69 | CN(C(=O)n1cnc(S(=O)(=O)[C@@H]2C[C@H]3CC[C@@H]2C3)n1)c1ccccc1 | IC50 (Plasmodium falciparum [2]): 2.71 µM
0.016 | CN(Cc1ccc(C(C)(C)C)cc1)C(=O)n1cnc(S(=O)(=O)[C@@H]2C[C@H]3CC[C@@H]2C3)n1 | solubility kinetic [3]: 28 µM (≈ 12.1 µg/mL); IC50 (HepG2): 75.2 µM; half-life [4]: 9 min
> 5 | O=C(N1CCc2ccccc2C1)n1cnc(S(=O)(=O)[C@@H]2C[C@H]3CC[C@@H]2C3)n1 | –
2.24 | CCN(CC)C(=O)n1cnc(S[C@@H]2C[C@H]3CC[C@@H]2C3)n1 | –
1.26 | CN(Cc1ccccc1C(F)(F)F)C(=O)n1cnc(S(=O)(=O)[C@@H]2C[C@H]3CC[C@@H]2C3)n1 | –
0.164 | CCN(C)C(=O)n1cnc(S(=O)(=O)c2c(C)cc(C)cc2C)n1 | –
0.725 | CN(Cc1ccccc1Cl)C(=O)n1cnc(S(=O)(=O)[C@@H]2C[C@H]3CC[C@@H]2C3)n1 | –
0.03 | COc1ccc(CN(C)C(=O)n2cnc(S(=O)(=O)[C@@H]3C[C@H]4CC[C@@H]3C4)n2)c(OC)c1 | –
1.42 | CC(C)N(C(=O)n1cnc(S[C@@H]2C[C@H]3CC[C@@H]2C3)n1)C(C)C | Intrinsic clearance (Liver microsome): 3.1 mL/min/g; half-life [4]: < 5 min; half-life [5]: 22.3 min; IC50 (Plasmodium falciparum [2]): 0.537 µM; IC50 [6]: Not Active
0.418 | O=C(N1CCCC1)n1cnc(S(=O)(=O)Cc2ccccc2)n1 | IC50 [6]: Not Active
0.84 | COc1ccc(CN(C(=O)n2cnc(S(=O)(=O)[C@@H]3C[C@H]4CC[C@@H]3C4)n2)C(C)C)cc1 | –
0.05 | CC(=O)c1ccc(CN(C)C(=O)n2cnc(S(=O)(=O)[C@@H]3C[C@H]4CC[C@@H]3C4)n2)cc1 | –
0.197 | CN(Cc1ccc(F)cc1)C(=O)n1cnc(S(=O)(=O)[C@@H]2C[C@H]3CC[C@@H]2C3)n1 | –
1.86 | CN(Cc1cccc(C(F)(F)F)c1)C(=O)n1cnc(S(=O)(=O)[C@@H]2C[C@H]3CC[C@@H]2C3)n1 | –
0.18 | CN(Cc1ccccc1F)C(=O)n1cnc(S(=O)(=O)[C@@H]2C[C@H]3CC[C@@H]2C3)n1 | –
> 4 | Cc1nc(S(=O)(=O)[C@@H]2C[C@H]3CC[C@@H]2C3)nn1C(=O)N(C)C(C)C | –
> 5 | CC(C)N(C(=O)n1cnc(S(=O)(=O)[C@@H]2C[C@H]3CC[C@@H]2C3)n1)C(C)C | IC50 (Plasmodium falciparum [2]): > 5 µM
0.373 | CN(Cc1cccc(F)c1)C(=O)n1cnc(S(=O)(=O)[C@@H]2C[C@H]3CC[C@@H]2C3)n1 | –
0.008 | CC(C)N(C)C(=O)n1cnc(S(=O)(=O)C2C3CC4CC(C3)CC2C4)n1 (configuration not stated) | –

IC50 (Plasmodium falciparum [1]) [µM] | SMILES | also measured
0.29 | CN(Cc1ccc(S(C)(=O)=O)cc1)C(=O)n1cnc(S(=O)(=O)[C@@H]2C[C@H]3CC[C@@H]2C3)n1 | –
0.028 | CC(C)N(C)C(=O)n1cnc(S(=O)(=O)C2CCCCC2)n1 | –
0.036 | COc1cccc(CN(C)C(=O)n2cnc(S(=O)(=O)[C@@H]3C[C@H]4CC[C@@H]3C4)n2)c1 | –
1.9 | CCN(C)C(=O)n1cnc(Sc2c(C)cc(C)cc2C)n1 | –
0.071 | CC(C)N(C)C(=O)n1cnc(S[C@@H]2C[C@H]3CC[C@@H]2C3)n1 | IC50 [6]: Not Active
0.093 | CCN(C)C(=O)n1cnc(S(=O)(=O)[C@@H]2C[C@H]3CC[C@@H]2C3)n1 | –
3.43 | CN(Cc1cccc(C#N)c1)C(=O)n1cnc(S(=O)(=O)[C@@H]2C[C@H]3CC[C@@H]2C3)n1 | –
0.019 | CC(C)N(C)C(=O)n1cnc(S(=O)(=O)c2ccc(Cl)cc2)n1 | –
0.585 | CCN(CC)C(=O)n1cnc(S(=O)(=O)[C@@H]2C[C@H]3CC[C@@H]2C3)n1 | –
– | CSc1nc(-c2ccc(OC(F)(F)F)cc2)nn1C(=O)N(C)c1ccccc1 | IC50 (Acetylcholinesterase): > 50000 µM
0.178 | O=C(N1CCCC1)n1cnc(S[C@@H]2C[C@H]3CC[C@@H]2C3)n1 | Intrinsic clearance (Liver microsome): 1.5 mL/min/g; half-life [4]: < 5 min; half-life [5]: > 30 min
1.44 | O=C(N1CCCC1)n1cnc(SCc2ccccc2)n1 | –
> 5 | CN(C(=O)n1cnc(S[C@@H]2C[C@H]3CC[C@@H]2C3)n1)c1ccccc1 | –
0.554 | CN(Cc1ccc(C(F)(F)F)cc1)C(=O)n1cnc(S(=O)(=O)[C@@H]2C[C@H]3CC[C@@H]2C3)n1 | –
0.626 | O=C(N1CCCCC1)n1cnc(S(=O)(=O)[C@@H]2C[C@H]3CC[C@@H]2C3)n1 | –
0.086 | CN(Cc1cccnc1)C(=O)n1cnc(S(=O)(=O)[C@@H]2C[C@H]3CC[C@@H]2C3)n1 | –
0.256 | CN(Cc1ccccc1)C(=O)n1cnc(S(=O)(=O)[C@@H]2C[C@H]3CC[C@@H]2C3)n1 | Intrinsic clearance (Liver microsome): 1.5 mL/min/g; half-life [4]: 19.4 min; half-life [5]: > 30 min; IC50 (Plasmodium falciparum [2]): 0.379 µM
1.02 | COc1ccc(CN(C(=O)n2cnc(S(=O)(=O)[C@@H]3C[C@H]4CC[C@@H]3C4)n2)C2CC2)cc1 | –
– | CSc1nc(-c2ccc(OC(F)(F)F)cc2)nn1C(=O)N(C)C | IC50 (Acetylcholinesterase): 200 µM
0.307 | CN(Cc1cccc(Cl)c1)C(=O)n1cnc(S(=O)(=O)[C@@H]2C[C@H]3CC[C@@H]2C3)n1 | –

SMILES | IC50 (Plasmodium falciparum [1]) [µM] | also measured
CN(C)C(=O)n1cnc(S[C@@H]2C[C@H]3CC[C@@H]2C3)n1 | 0.141 | –
CN(C(=O)n1cnc(S(=O)(=O)[C@@H]2C[C@H]3CC[C@@H]2C3)n1)C(C)(C)C | > 5 | –
O=C(N1CCCC1)n1cnc(S(=O)(=O)[C@@H]2C[C@H]3CC[C@@H]2C3)n1 | 0.084 | Intrinsic clearance (Liver microsome): 1 mL/min/g; half-life [4]: < 5 min; half-life [5]: > 30 min; IC50 (Plasmodium falciparum [2]): 0.037 µM
CCCN(C)C(=O)n1cnc(S(=O)(=O)[C@@H]2C[C@H]3CC[C@@H]2C3)n1 | 0.145 | –
CN(C)C(=O)n1cnc(S(=O)(=O)[C@@H]2C[C@H]3CC[C@@H]2C3)n1 | 0.047 | –
O=C1C(O)=C([C@H]2CC[C@H](c3ccc(Cl)cc3)CC2)C(=O)c2ccccc21 [ATOVAQUONE] | 0.001 | IC50 (Plasmodium falciparum [2]): 0.0003 µM; Activity (Plasmodium falciparum [7]): Active
